This passage reports IC50 and EC50 results from ChEMBL document CHEMBL1136751 (J Med Chem, 2003).

Assay [1] addresses T1, Peroxisome proliferator-activated receptor gamma (Homo sapiens, UniProt P37231).
T1 sequence (P37231 whole entry): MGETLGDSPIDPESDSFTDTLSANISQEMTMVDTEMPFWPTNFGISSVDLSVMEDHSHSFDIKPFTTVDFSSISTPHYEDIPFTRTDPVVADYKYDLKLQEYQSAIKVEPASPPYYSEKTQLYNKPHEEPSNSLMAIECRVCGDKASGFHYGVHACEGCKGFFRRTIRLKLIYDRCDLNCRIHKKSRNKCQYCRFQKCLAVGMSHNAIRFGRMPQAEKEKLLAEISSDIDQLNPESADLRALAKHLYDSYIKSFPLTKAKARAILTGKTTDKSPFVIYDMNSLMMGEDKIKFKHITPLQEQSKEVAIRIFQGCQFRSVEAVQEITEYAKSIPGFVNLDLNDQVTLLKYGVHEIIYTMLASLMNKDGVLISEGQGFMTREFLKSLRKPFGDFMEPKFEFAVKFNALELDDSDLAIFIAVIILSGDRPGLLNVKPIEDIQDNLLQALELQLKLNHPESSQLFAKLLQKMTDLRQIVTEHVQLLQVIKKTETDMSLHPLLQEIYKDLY
Description: Receptor binding affinity to human Peroxisome proliferator activated receptor gamma against [3H]ragalitazar radioligand

Assay [2] concerns the target T2, Peroxisome proliferator-activated receptor alpha (Homo sapiens, UniProt Q07869).
T2 sequence (Q07869 whole entry): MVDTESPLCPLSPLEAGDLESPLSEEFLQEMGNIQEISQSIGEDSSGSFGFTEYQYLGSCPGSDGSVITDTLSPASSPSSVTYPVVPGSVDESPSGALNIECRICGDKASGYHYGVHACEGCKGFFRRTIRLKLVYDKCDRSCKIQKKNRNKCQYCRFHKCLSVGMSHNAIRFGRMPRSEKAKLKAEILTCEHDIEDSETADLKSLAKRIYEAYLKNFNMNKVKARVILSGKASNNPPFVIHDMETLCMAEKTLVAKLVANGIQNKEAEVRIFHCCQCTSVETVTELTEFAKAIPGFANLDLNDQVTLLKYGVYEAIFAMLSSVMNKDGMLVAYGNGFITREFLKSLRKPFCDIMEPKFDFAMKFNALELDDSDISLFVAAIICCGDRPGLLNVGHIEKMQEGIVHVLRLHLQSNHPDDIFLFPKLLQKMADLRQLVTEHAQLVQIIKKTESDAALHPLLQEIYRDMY
Kind of assay: Receptor binding affinity to human Peroxisome proliferator activated receptor alpha against [3H]-NNC 0061-4655 radioligand.

For assay [3], the target named is T1, Peroxisome proliferator-activated receptor gamma. This is another data set of the same source.
Description: Agonistic activity for human Peroxisome proliferator activated receptor gamma
The target in assay [4] is T2, Peroxisome proliferator-activated receptor alpha. The assay can be described thus: Agonistic activity for Peroxisome proliferator activated receptor alpha. The class given is functional.

The IC50 is the concentration that inhibits the measured activity by half. The term EC50 denotes the concentration needed to bring the measured effect to its halfway point. Low values mean higher potency in that assay, high ones lower potency in that assay.

As to `CCO[C@H](Cc1ccc(OCCN2c3ccccc3Oc3ccccc32)cc1)C(=O)O`, the IC50 in assay [1] is over 10000 nM; in assay [2], over 10 µM.
With `CCO[C@@H](Cc1ccc(OCCN2c3ccccc3Oc3ccccc32)cc1)C(=O)O` [RAGAGLITAZAR], in assay [2], the IC50 was 0.98 µM. The molecule also had an EC50 in assay [3] of 600 nM.
Take `CCO[C@@H](Cc1ccc(OCCc2ccc(OS(C)(=O)=O)cc2)cc1)C(=O)O` [TESAGLITAZAR]: the IC50 in assay [1] stood at 350 nM; in assay [2], 3.8 µM. Besides, the results for the EC50 in assay [4] and in assay [3] were 1200 nM and 1300 nM, respectively.
